The source of these data is patent US20260159512A1, “BCAT2 INHIBITORS” (AGIOS PHARMACEUTICALS, INC., priority 2021, published 2026).

As usually defined, the IC50 is the midpoint of a concentration-inhibition curve.

Holding throughout (details): average where tested multiple times
Assay [1] deals with T1, BCAT2 (Homo sapiens, UniProt O15382).
T1 sequence (O15382 28-392): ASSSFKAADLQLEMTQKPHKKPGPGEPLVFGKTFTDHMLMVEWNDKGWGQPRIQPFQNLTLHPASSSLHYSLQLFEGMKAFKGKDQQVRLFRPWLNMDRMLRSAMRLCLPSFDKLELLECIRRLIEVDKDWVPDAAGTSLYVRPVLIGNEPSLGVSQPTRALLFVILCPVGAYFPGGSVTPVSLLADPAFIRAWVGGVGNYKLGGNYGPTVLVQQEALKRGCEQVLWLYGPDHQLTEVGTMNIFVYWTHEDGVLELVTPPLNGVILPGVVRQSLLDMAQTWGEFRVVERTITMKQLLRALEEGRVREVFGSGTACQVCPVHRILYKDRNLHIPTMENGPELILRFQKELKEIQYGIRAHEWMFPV
In words: BCAT2 in vitro enzyme inhibition assay (resazurin/diaphorase-coupled fluorescence). It is filed as biochemical. In outline: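 Coupled fluorescence readout: glutamate formed from L-leucine/α-ketoglutarate transamination drives GDH/NAD/diaphorase reduction of resazurin (Ex 540/Em 590). Human BCAT2 was first exposed 1 h at room temperature to compound, top final 100 μM in 3-fold, 10-point series; substrate reaction ran 1 h before SDS quench, in technical duplicate with DMSO max and enzyme-free min controls.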
A general note: The colour change of resazurin is a common sign of viable cells or microbes.

For another assay, the target named is T2, hBCAT1 (Homo sapiens, UniProt P54687).
T2 sequence (P54687 1-386): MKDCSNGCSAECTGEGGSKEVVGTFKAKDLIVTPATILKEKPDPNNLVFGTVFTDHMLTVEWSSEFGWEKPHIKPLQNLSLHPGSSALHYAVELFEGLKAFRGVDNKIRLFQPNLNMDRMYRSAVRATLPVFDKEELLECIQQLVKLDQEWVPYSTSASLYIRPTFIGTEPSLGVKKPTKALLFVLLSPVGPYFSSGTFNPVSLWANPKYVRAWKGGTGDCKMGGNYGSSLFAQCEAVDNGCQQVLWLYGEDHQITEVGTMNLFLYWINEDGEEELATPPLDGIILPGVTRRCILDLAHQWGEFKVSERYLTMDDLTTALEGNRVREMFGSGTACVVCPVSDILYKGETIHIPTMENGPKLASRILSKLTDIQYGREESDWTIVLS
In words: BCAT1 in vitro enzyme inhibition assay (resazurin/diaphorase-coupled fluorescence). The class given is biochemical. In outline:
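Human BCAT1 activity read by resazurin/diaphorase-coupled fluorescence. Compounds added from 50× DMSO stocks at 1:50, giving 10-point 3-fold titrations from 100 μM top final concentration. Run in technical duplicate; repeat tests averaged.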

Assay [2] concerns the target T1, BCAT2. In words: BCAT2 in vitro cell inhibition using engineered A549 cells (KMV cell assay, 13C6-KMV by LC-MS/MS). The class given is cell-based. On the set-up: The result was an engineered A549 cell line that expressed endogenous BCAT2; endogenous in cells; host or cells: A549 cells with MUT and BCAT1 knocked out by CRISPR/CAS9; key to BCAT2 Cell Inhibition: A: less than or equal to 0.100 μM; B: greater than 0.100 and less than or equal to 0.500 μM; C: greater than 0.500 and less than or equal to 1.000 μM; d: greater than 1.000 μM; E: no fit.

On to `N#CCc1ccccc1-c1nc2cnc(-c3nc[nH]n3)cc2n1[C@@H]1CCC[C@H](NC(=O)c2ncc(Cl)s2)C1` [Example 355, 5-chloro-N-((1S,3R)-3-(2-(2-(cyanomethyl)phenyl)-6-(1H-1,2,4-triazol-3-yl)-1H-imidazo[4,5-c]pyridin-1-yl)cyclohexyl)thiazole-2-carboxamide], for which the IC50 on BCAT2 [1] was no more than 100 nM; on hBCAT1, less than 500 nM; on BCAT2 [2] it was no more than 100 nM.
As to `N#Cc1ccccc1-c1nc2cnc(-c3nc[nH]n3)cc2n1[C@@H]1CCC[C@H](NC(=O)c2ccc(Cl)s2)C1` [Example 356, 5-chloro-N-((1S,3R)-3-(2-(2-cyanophenyl)-6-(1H-1,2,4-triazol-3-yl)-1H-imidazo[4,5-c]pyridin-1-yl)cyclohexyl)thiophene-2-carboxamide], the IC50 is no more than 100 nM on BCAT2 [1], 500 to 1000 nM on hBCAT1 and no more than 100 nM at BCAT2 [2].
Regarding `CC(C)Cc1nc2cnc(-c3ncn(C)n3)cc2n1[C@@H]1CCC[C@H](NC(=O)c2ncc(Cl)s2)C1` [Example 358, 5-chloro-N-((1S,3R)-3-(2-isobutyl-6-(1-methyl-1H-1,2,4-triazol-3-yl)-1H-imidazo[4,5-c]pyridin-1-yl)cyclohexyl)thiazole-2-carboxamide], the figures for the IC50 on BCAT2 [1], against hBCAT1 and on BCAT2 [2] were no more than 100 nM, 500 to 1000 nM and 100 to 500 nM, respectively.
For the compound `O=C(N[C@H]1CCC[C@@H](n2c(-c3ccccc3O)nc3cnc(-n4nccn4)cc32)C1)c1ncc(Cl)s1` [Example 363, 5-chloro-N-((1S,3R)-3-(2-(2-hydroxyphenyl)-6-(2H-1,2,3-triazol-2-yl)-1H-imidazo[4,5-c]pyridin-1-yl)cyclohexyl)thiazole-2-carboxamide], the results for the IC50 against BCAT2 [1], against hBCAT1 and against BCAT2 [2] were no more than 100 nM, less than 500 nM and no more than 100 nM, respectively.
For `O=C(N[C@H]1CCCN(n2c(-c3ccccc3F)nc3cnc(-c4nc[nH]n4)cc32)C1)c1ncc(Cl)s1` [Example 364, (S)-5-chloro-N-(1-(2-(2-fluorophenyl)-6-(1H-1,2,4-triazol-3-yl)-1H-imidazo[4,5-c]pyridin-1-yl)piperidin-3-yl)thiazole-2-carboxamide], the IC50 on BCAT2 [1] is no more than 100 nM; against hBCAT1, less than 500 nM; against BCAT2 [2], no more than 100 nM.
With `N#Cc1cccc(-c2nc3cnc(-c4nc[nH]n4)cc3n2[C@@H]2CCC[C@H](NC(=O)c3ccc(Cl)s3)C2)c1F` [Example 365, 5-chloro-N-((1S,3R)-3-(2-(3-cyano-2-fluorophenyl)-6-(1H-1,2,4-triazol-3-yl)-1H-imidazo[4,5-c]pyridin-1-yl)cyclohexyl)thiophene-2-carboxamide], the IC50 on BCAT2 [1] is no more than 100 nM; against hBCAT1, 1000 to 5000 nM; at BCAT2 [2], greater than 1000 nM.
On the same counts, the results for `NCc1ccccc1-c1nc2cnc(-c3nc[nH]n3)cc2n1[C@@H]1CCC[C@H](NC(=O)c2ncc(Cl)s2)C1` [Example 366, N-((1S,3R)-3-(2-(2-(aminomethyl)phenyl)-6-(1H-1,2,4-triazol-3-yl)-1H-imidazo[4,5-c]pyridin-1-yl)cyclohexyl)-5-chlorothiazole-2-carboxamide] are no more than 100 nM, 500 to 1000 nM and greater than 1000 nM.
For the compound `O=C(N[C@H]1CCC[C@@H](n2c(-c3ccccc3OC(F)F)nc3cnc(-c4nc[nH]n4)cc32)C1)c1ncc(Cl)s1` [Example 367, 5-chloro-N-((1S,3R)-3-(2-(2-(difluoromethoxy)phenyl)-6-(1H-1,2,4-triazol-3-yl)-1H-imidazo[4,5-c]pyridin-1-yl)cyclohexyl)thiazole-2-carboxamide], the IC50 at BCAT2 [1] is no more than 100 nM; at hBCAT1, less than 500 nM. The “BCAT2 Cell Inhibition” value on BCAT2 [2] is “E”.
For the compound `CC(C)Cc1nc2cnc(-c3nc[nH]n3)cc2n1[C@@H]1CCCC[C@H](NC(=O)c2ncc(Cl)s2)C1` [Example 374, 5-chloro-N-((1S,3R)-3-(2-isobutyl-6-(1H-1,2,4-triazol-3-yl)-1H-imidazo[4,5-c]pyridin-1-yl)cycloheptyl)thiazole-2-carboxamide], the IC50 against BCAT2 [1] was no more than 100 nM; against hBCAT1, less than 500 nM; at BCAT2 [2] it was no more than 100 nM.
